Source: US20120003661A1, “METHODS AND DEVICES FOR THE SELECTIVE DETECTION OF MICROORGANISMS” (C3 JIAN, INC., priority 2010, published 2012)
Entries after “also recorded” stand apart in the source; their conditions may differ. Like-named read-outs stand apart in the source and are kept apart here. Ends that are not written are not given here.

Columns and labels:
MRSA = test: MIC of antimicrobial peptides (Table 4); type: cell-based, Methicillin-resistant Staphylococcus aureus
T. rubrum = test: MIC of antimicrobial peptides (Table 4); type: cell-based, Trichophyton rubrum
A. niger = test: MIC of antimicrobial peptides (Table 4); type: cell-based, Aspergillus niger
B. subtilis = test: MIC of antimicrobial peptides (Table 4); type: cell-based, Bacillus subtilis
S. epidermidis = test: MIC of antimicrobial peptides (Table 4); type: cell-based, Staphylococcus epidermidis
C. albicans = test: MIC of antimicrobial peptides (Table 4); type: cell-based, Candida albicans
E. faecalis = test: MIC of antimicrobial peptides (Table 4); type: cell-based, Enterococcus faecalis
E. coli = test: MIC of antimicrobial peptides (Table 4); type: cell-based, Escherichia coli
S. pneumoniae = test: MIC of antimicrobial peptides (Table 4); type: cell-based, Streptococcus pneumoniae
S. mutans = test: MIC of antimicrobial peptides (Table 4); type: cell-based, Streptococcus mutans
P. aeruginosa = test: MIC of antimicrobial peptides (Table 4); type: cell-based, Pseudomonas aeruginosa
A. baumannii = test: MIC of antimicrobial peptides (Table 4); type: cell-based, Acinetobacter baumannii
C. difficile = test: MIC of antimicrobial peptides (Table 4); type: cell-based, Clostridium difficile
C. jeikeium = test: MIC of antimicrobial peptides (Table 4); type: cell-based, Corynebacterium jeikeium
[1] = system: bacteria, fungi, and/or yeasts; type: binding

Substance | Organism MIC (MRSA) | Organism MIC (T. rubrum) | Organism MIC (A. niger) | Organism MIC (B. subtilis; B. subtilis) | Organism MIC (S. epidermidis) | Organism MIC (C. albicans) | other results
MRFGSLALVAYDSAIKHSWPRPSSVRRLRM [PF-672] | MRSA, 1.56 μM | T. rubrum, 0.78 μM | A. niger, 3 μM | B. subtilis, 0.78 μM | S. epidermidis, 0.39 μM | C. albicans, 1.56 μM | Organism MIC (E. faecalis): E. faecalis, 3.13 μM
TKKIELKRFVDAFVKKSYENYILERELKKLIKAINEELPTK [PF-600] |  |  |  |  |  |  | Organism MIC (E. coli): E. coli, 50 μM; Organism MIC (S. pneumoniae): S. pneumoniae, 50 μM
FESKILNASKELDKEKKVNTALSFNSHQDFAKAYQNGKI [PF-606] | MRSA, 50 μM |  |  |  | S. epidermidis, 50 μM |  | Organism MIC (S. mutans): S. mutans, 50 μM; Organism MIC (E. coli): E. coli, 50 μM; Organism MIC (S. pneumoniae): S. pneumoniae, 50 μM
YIQFHLNQQPRPKVKKIKIFL-NH2 [PF-531] |  | T. rubrum, 50 μM | A. niger, 25 μM | B. subtilis, 25 μM | S. epidermidis, 50 μM |  | Organism MIC (S. mutans): S. mutans, 12.5 μM; Organism MIC (P. aeruginosa): P. aeruginosa, 50 μM; Organism MIC (A. baumannii): A. baumannii, 25 μM; Organism MIC (C. difficile): C. difficile, 12.5 μM; Organism MIC (C. jeikeium): C. jeikeium, 6.25 μM
GSVIKKRRKRMAKKKHRKLLKKTRIQRRRAGK [PF-527] | MRSA, 50 μM | T. rubrum, 25 μM | A. niger, 50 μM |  | S. epidermidis, 25 μM |  | Organism MIC (P. aeruginosa): P. aeruginosa, 50 μM; Organism MIC (B. subtilis): B. subtilis, 12.5 μM; Organism MIC (C. jeikeium): C. jeikeium, 6.25 μM; Target(s) [1]: S. epidermidis, M. luteus, P. mirabilis,; also recorded: E. coli, P. aeruginosa,; also recorded: MRSA, S. pneumoniae, E. faecalis,; also recorded: C. jeikeium, C. jejuni
LSLATFAKIFMTRSNWSLKRFNRL [PF-278] |  | T. rubrum, 50 μM |  |  | S. epidermidis, 50 μM | C. albicans, 50 μM | 
MKRRRCNWCGKLFYLEEKSKEAYCCKECRKKAKKVKK [PF-307] |  | T. rubrum, 50 μM |  | B. subtilis, 50 μM |  | C. albicans, 50 μM | 
